From patent US20260151372A1, “AZOTOMYCIN PRODRUGS WITH PREFERENTIAL TUMOR DELIVERY” (The Johns Hopkins University, priority 2022, published 2026)
“Also recorded” adds a separate entry of the source.

Tests used:
[1] = Metabolic stability in CES1-KO mouse liver homogenate; assay type: in vitro ADME; settings: tissue homogenate, 10 μM, 37° C.
Experimental: (§1) In vitro stability studies were done using CES1KO mouse plasma, human plasma, CES1-KO mouse liver, and human liver microsomes as previously described. For tissue homogenate stability studies, washed tissue was diluted 10-fold in 0.1 M potassium phosphate buffer and homogenized using probe sonication. Crude homogenate was then aliquoted to 1 mL, and spiked with 10 mM stock of the analyte in DMSO to achieve a 10 μM final concentration. The plasma stability of the prodrugs was determined by spiking the analyte in 1 mL of plasma. The plasma and tissues were incubated in an orbital shaker at 37° C. Stability in human liver microsomes was assessed at a final prodrug concentration of 1 μM with 0.2 mg/mL protein for microsomes. All the stability studies were conducted at predetermined times (0 and 60 min), where 50 μL aliquots of the mixture in triplicate were removed and the reaction was quenched by addition of 5 times the volume of ice-cold methanol spiked with the internal standard (losartan: 0.5 μM). The samples were vortex-mixed for 30 s and centrifuged at 10,000 g for 10 min at 4° C. An amount of 50 μL of the supernatant was diluted with 50 μL of water and transferred to a 250 μL polypropylene vial sealed with a Teflon cap. Prodrug disappearance was monitored over time using liquid chromatography and mass spectrometry (LC-MS).
(§2) Analyses were performed on a Dionex ultra high-performance LC system coupled with Q Exactive Focus orbitrap mass spectrometer (Thermo Fisher Scientific Inc., Waltham MA). Separation was achieved using Agilent Eclipse Plus column (100×2.1 mm i.d., maintained at 35° C.) packed with a 1.8 μm C18 stationary phase. The mobile phase consisted of 0.1% formic acid in water and 0.1% formic acid in acetonitrile, […] were operated at a flow rate of 0.3 mL/min for 7 min using gradient elution. The mass spectrometer controlled by Xcalibur software 4.0.27.13 (Thermo Scientific) was operated with a HESI ion source in positive ionization mode. Metabolites were identified in the full-scan mode (from m/z 50 to 1600) by comparing […] samples

[2] = Metabolic stability in human liver microsomes; assay type: in vitro ADME; settings: 1 μM prodrug, 0.2 mg/mL protein
Experimental: as §1, §2

[3] = Plasma stability in CES1KO mouse plasma; assay type: in vitro ADME; settings: for Plasma Stability (% Remaining at 60 min) CES1^−/− Mouse Plasma: 37° C.; for stability in vitro (in words): mouse and human plasma and liver microsomes in vitro
Experimental: as §1, §2

[4] = Plasma stability in human plasma; assay type: in vitro ADME; settings: 37° C.
Experimental: as §1, §2

[5] = Pharmacokinetics in C57BL/6 CES1^−/− mice bearing flank EL4 tumors; assay type: in vivo
Experimental: The pharmacokinetic study in C57BL/6 CES1 mice was conducted according to protocols reviewed and approved by the Johns Hopkins Institutional Animal Care and Use Committee in compliance with the Association for Assessment and Accreditation of Laboratory Animal Care International and the Public Health Service Policy on the Humane Care and Use of Laboratory Animals (PHS Policy). Briefly, naïve male and female C57BL/6 CES1^−/− mice (weighing between 25 and 30 g) 6-8 weeks of age were used. The animals were maintained on a 12 h light-dark cycle with ad libitum access to food and water. Tumors were grown via subcutaneous (SC) injection of EL4 cells (1×10^6 cells in 0.2 mL of phosphate-buffered saline) in one location on the flank of each mouse. […]
For quantifying intact analytes in the pharmacokinetic samples, plasma samples (25 μL) were processed using a single step protein precipitation method by addition of 125 μL of methanol containing internal standard (losartan: 0.5 μM), followed by vortex-mixing for 30 s and then centrifugation at 16,000 g for 5 min at 4° C. […]
The samples were subjected to dabsyl chloride derivatization and analyzed by LC-MS/MS, as described in Tenora et al., 2019. […]

SMILES	Liver Stability (% Remaining at 60 min) CES1^−/− Mouse Liver [1] [%]	Liver Stability (% Remaining at 60 min) Human Liver Microsomes [2] [%]	Plasma Stability (% Remaining at 60 min) CES1^−/− Mouse Plasma [3] [%]	Plasma Stability (% Remaining at 60 min) Human Plasma [4] [%]	stability in vitro (in words) [3]	preferential tumor delivery / tumor targeting (in words) [5]
CN(C)CC(=O)N[C@@H](CCC(=O)N[C@@H](CCC(=O)C=[N+]=[N-])C(=O)N[C@@H](CCC(=O)C=[N+]=[N-])C(=O)OC(C)(C)C)C(=O)OC(C)(C)C [Prodrug P3, tert-Butyl (6S,11S,14S)-6-(tert-butoxycarbonyl)-11,14-bis(4-diazo-3-oxobutyl)-2-methyl-4,9,12-trioxo-2,5,10,13-tetraazapentadecan-15-oate]	96.0 ± 4.36	105 ± 2.53	92.3 ± 0.882	106 ± 2.40	stable	exhibited preferential tumor delivery
CN(C)CC(=O)N[C@@H](Cc1c[nH]c2ccccc12)C(=O)N[C@@H](CCC(=O)N[C@@H](CCC(=O)C=[N+]=[N-])C(=O)N[C@@H](CCC(=O)C=[N+]=[N-])C(=O)OC(C)(C)C)C(=O)OC(C)(C)C [Prodrug P4, tert-Butyl (6S,9S,14S,17S)-6-((1H-indol-3-yl)methyl)-9-(tert-butoxycarbonyl)-14,17-bis(4-diazo-3-oxobutyl)-2-methyl-4,7,12,15-tetraoxo-2,5,8,13,16-pentaazaoctadecan-18-oate]	54.3 ± 1.45	107 ± 1.63	101 ± 4.67	100 ± 0.00	stable	exhibited preferential tumor delivery; also recorded: showed tumor targeting
CC(C)OC(=O)[C@H](CCC(=O)N[C@@H](CCC(=O)C=[N+]=[N-])C(=O)N[C@@H](CCC(=O)C=[N+]=[N-])C(=O)OC(C)C)NC(=O)CNC(=O)CN(C)C [Prodrug P17, Isopropyl (9S,14S,17S)-14,17-bis(4-diazo-3-oxobutyl)-9-(isopropoxycarbonyl)-2-methyl-4,7,12,15-tetraoxo-2,5,8,13,16-pentaazaoctadecan-18-oate]	0.964 ± 0.031	98.0 ± 5.36	94.0 ± 2.47	93.7 ± 4.92		

The next lines start with results.

Liver Stability (% Remaining at 60 min) CES1^−/− Mouse Liver [1] [%]	Liver Stability (% Remaining at 60 min) Human Liver Microsomes [2] [%]	Plasma Stability (% Remaining at 60 min) CES1^−/− Mouse Plasma [3] [%]	Plasma Stability (% Remaining at 60 min) Human Plasma [4] [%]	SMILES	stability in vitro (in words) [3]	preferential tumor delivery / tumor targeting (in words) [5]
0.11 ± 0.03	84.9 ± 2.30	105 ± 5	105 ± 4.81	CC(C)OC(=O)[C@H](CCC(=O)C=[N+]=[N-])NC(=O)[C@H](CCC(=O)C=[N+]=[N-])NC(=O)CC[C@H](NC(=O)[C@H](CCCNC(N)=O)NC(=O)[C@@H](N)C(C)C)C(=O)OC(C)C [Prodrug P18, Isopropyl (6S,9S,14S,17S)-1-amino-6-((S)-2-amino-3-methylbutanamido)-14,17-bis(4-diazo-3-oxobutyl)-9-(isopropoxycarbonyl)-1,7,12,15-tetraoxo-2,8,13,16-tetraazaoctadecan-18-oate]		
0.502 ± 0.103	74.1 ± 2.10	85.1 ± 0.64	97.0 ± 4.11	CC(=O)NCCCC[C@H](NC(=O)C12CC3CC(CC(C3)C1)C2)C(=O)N[C@@H](CCC(=O)N[C@@H](CCC(=O)C=[N+]=[N-])C(=O)N[C@@H](CCC(=O)C=[N+]=[N-])C(=O)OC(C)C)C(=O)OC(C)C [Prodrug P19, Isopropyl (2S,5S,10S,13S)-13-((3S,5S,7S)-adamantane-1-carboxamido)-2,5-bis(4-diazo-3-oxobutyl)-10-(isopropoxycarbonyl)-4,7,12,19-tetraoxo-3,6,11,18-tetraazaicosanoate]		
